From US11986532B2 (Arvinas Operations, Inc., priority 2021, dated 2024)
Read-outs that look alike come from different tables or passages of the source.

Biological target: T1, BCL6 (Homo sapiens, UniProt P41182)
T1 construct: endogenous in cells; host or cells: T47D breast cancer epithelial cells
Assay: Immunofluorescence protocol for high content imaging of BCL6 (degradation) in T47D cells, 3 days compound treatment
Type: cell-based
Conditions: for Dmax: read-out: Mean Dmax (%)** category; for DC50: read-out: Mean DC50 (nM)* category
Procedure, shortened: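 T47D, RPMI1640/10% FBS; cpd 11-pt 3-fold, top 0.1 or 1 μM final; 3 d, 37° C. Fix 4% PFA, perm 0.1% Triton, block 3% BSA; anti-BCL6 1:300 o/n 4° C; Alexa-488 2°, CellMask-647, Hoechst. Imaged 10×, 4 fields/well.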

[1] = T47D cells, 3 days compound treatment

Row | DC50 [1] | Dmax [1] | Compound | Dmax (T47D) | DC50 | Mean Dmax (%)** category
1 |  |  | CNC(=O)COc1cc2cc(Nc3nc(N4CCC(O[C@H]5C[C@H](N6CCCC7(CCN(c8ccc9c(c8)CN(C8CCC(=O)NC8=O)C9=O)C7)C6)C5)CC4)ncc3Cl)ccc2n(C(C)C)c1=O (some centres unmarked) [Compound 356, 2-({6-[(5-chloro-2-{4-[(1r,3r)-3-{2-[2-(2,6-dioxopiperidin-3-yl)-1-oxo-2,3-dihydro-1H-isoindol-5-yl]-2,7-diazaspiro [4.5]decan-7-yl}cyclobutoxy]piperidin-1-yl}pyrimidin-4-yl)amino]-2-oxo-1-(propan-2-yl)-1,2-dihydroquinolin-3-yl}oxy)-N-methylacetamide] | ≥ 70% | < 10 nM | 
2 |  |  | CNC(=O)COc1cc2cc(Nc3nc(N4CCC(O[C@H]5C[C@H](N6CCC(c7ccc8c(c7F)CN(C7CCC(=O)NC7=O)C8=O)CC6)C5)CC4)ncc3Cl)ccc2n(CC(C)C)c1=O (some centres unmarked) [Compound 425, 2-({6-[(5-chloro-2-{4-[(1r,3r)-3-{4-[2-(2,6-dioxopiperidin-3-yl)-4-fluoro-1-oxo-2,3-dihydro-1H-isoindol-5-yl]piperidin-1-yl}cyclobutoxy]piperidin-1-yl}pyrimidin-4-yl)amino]-1-(2-methylpropyl)-2-oxo-1,2-dihydroquinolin-3-yl}oxy)-N-methylacetamide] | ≥ 70% | < 10 nM | 
3 |  |  | CNC(=O)COc1cc2cc(Nc3nc(N4CCC(O[C@H]5C[C@H](N6CCC(c7ccc8c(c7F)[C@H](C)N([C@H]7CCC(=O)NC7=O)C8=O)CC6)C5)CC4)ncc3Cl)ccc2n(C(C)C)c1=O [Compound 290, 2-({6-[(5-chloro-2-{4-[(1r,3r)-3-{4-[(3S)-2-[(3S)-2,6-dioxopiperidin-3-yl]-4-fluoro-3-methyl-1-oxo-2,3-dihydro-1H-isoindol-5-yl]piperidin-1-yl}cyclobutoxy]piperidin-1-yl}pyrimidin-4-yl)amino]-2-oxo-1-(propan-2-yl)-1,2-dihydroquinolin-3-yl}oxy)-N-methylacetamide] | ≥ 70% | < 10 nM | 
4 |  |  | CNC(=O)COc1cc2cc(Nc3nc(N4CCC(O[C@H]5C[C@H](N6CCN(c7ccc8c(c7)CN([C@H]7CCC(=O)NC7=O)C8=O)C(C)(C)C6)C5)CC4)ncc3Cl)ccc2n(C(C)C)c1=O [Compound 211, 2-({6-[(5-chloro-2-{4-[(1r,3r)-3-{4-[2-(2,6-dioxopiperidin-3-yl)-1-oxo-2,3-dihydro-1H-isoindol-5-yl]-3,3-dimethylpiperazin-1-yl}cyclobutoxy]piperidin-1-yl}pyrimidin-4-yl)amino]-2-oxo-1-(propan-2-yl)-1,2-dihydroquinolin-3-yl}oxy)-N-methylacetamide] | ≥ 70% | < 10 nM | 
5 |  |  | CNC(=O)COc1cc2cc(Nc3nc(N4CCC(O[C@H]5C[C@H](N6CC[C@@H](c7ccc8c(c7F)CN([C@H]7CCC(=O)NC7=O)C8=O)C[C@H]6C)C5)CC4)ncc3Cl)ccc2n(C(C)C)c1=O [Compound 294, 2-({6-[(5-chloro-2-{4-[(1r,3r)-3-[(2R,4R)-4-{2-[(3S)-2,6-dioxopiperidin-3-yl]-4-fluoro-1-oxo-2,3-dihydro-1H-isoindol-5-yl}-2-methylpiperidin-1-yl]cyclobutoxy]piperidin-1-yl}pyrimidin-4-yl)amino]-2-oxo-1-(propan-2-yl)-1,2-dihydroquinolin-3-yl}oxy)-N-methylacetamide] | ≥ 70% | < 10 nM | 
6 | < 10 nM | 50 to 70% | CNC(=O)COc1cc2cc(Nc3nc(N4CCC(F)(CN5CC6(CCN(c7cccc8c7CN(C7CCC(=O)NC7=O)C8=O)CC6)C5)CC4)ncc3Cl)ccc2n(C(C)C)c1=O (centres unmarked) [Compound 99] |  |  | 
7 | 10 to 50 nM | 50 to 70% | CNC(=O)COc1cc2cc(Nc3nc(N4CCC(CN5CCC6(CC5)CN(c5ccc7c(c5)C(=O)N(C5CCC(=O)NC5=O)C7=O)C6)CC4)ncc3F)ccc2n(C(C)C)c1=O (centres unmarked) [Compound 57, 2-{[6-({2-[4-({2-[2-(2,6-dioxopiperidin-3-yl)-1,3-dioxo-2,3-dihydro-1H-isoindol-5-yl]-2,7-diazaspiro[3.5]nonan-7-yl}methyl)piperidin-1-yl]-5-fluoropyrimidin-4-yl}amino)-2-oxo-1-(propan-2-yl)-1,2-dihydroquinolin-3-yl]oxy}-N-methylacetamide] |  |  | 
8 |  |  | CNC(=O)COc1cc2cc(Nc3nc(N4CCC(O[C@H]5C[C@H](N6CCN(c7ccc8c(n7)CN(C7CCC(=O)NC7=O)C8=O)[C@H](C)C6)C5)CC4)ncc3Cl)ccc2n(C(C)C)c1=O (stereo partly drawn) [Compound 415, 2-({6-[(5-chloro-2-{4-[(1r,3r)-3-[(3R)-4-[6-(2,6-dioxopiperidin-3-yl)-5-oxo-5H,6H,7H-pyrrolo [3,4-b]pyridin-2-yl]-3-methylpiperazin-1-yl]cyclobutoxy]piperidin-1-yl}pyrimidin-4-yl)amino]-2-oxo-1-(propan-2-yl)-1,2-dihydroquinolin-3-yl}oxy)-N-methylacetamide] |  | < 10 nM | A (A >= 70)
9 |  |  | CNC(=O)COc1cc2cc(Nc3nc(N4CCC(OC5CCC6(CC5)CN(c5c(F)ccc7c5CN(C5CCC(=O)NC5=O)C7=O)C6)CC4)ncc3Cl)ccc2n(C(C)C)c1=O (centres unmarked) [Compound 298, 2-{[6-({5-chloro-2-[4-({2-[2-(2,6-dioxopiperidin-3-yl)-5-fluoro-1-oxo-2,3-dihydro-1H-isoindol-4-yl]-2-azaspiro[3.5]nonan-7-yl}oxy)piperidin-1-yl]pyrimidin-4-yl}amino)-2-oxo-1-(propan-2-yl)-1,2-dihydroquinolin-3-yl]oxy}-N-methylacetamide] | 50 to 70% | < 10 nM | 
10 |  |  | CNC(=O)COc1cc2cc(Nc3nc(N4CCC(O[C@H]5C[C@H](N6CCN(c7ccc8c(c7Cl)CN([C@@H]7CCC(=O)NC7=O)C8=O)[C@H](C)C6)C5)CC4)ncc3Cl)ccc2n(C(C)C)c1=O [Compound 268, 2-({6-[(5-chloro-2-{4-[(1r,3r)-3-[(3R)-4-{4-chloro-2-[(3R)-2,6-dioxopiperidin-3-yl]-1-oxo-3H-isoindol-5-yl}-3-methylpiperazin-1-yl]cyclobutoxy]piperidin-1-yl}pyrimidin-4-yl)amino]-1-isopropyl-2-oxoquinolin-3-yl}oxy)-N-methylacetamide] | ≥ 70% | < 10 nM | 
11 |  |  | CNC(=O)COc1cc2cc(Nc3nc(N4CCC(O[C@H]5C[C@H](N6CCC(c7ccc8c(c7F)[C@@H](C)N(C7CCC(=O)NC7=O)C8=O)CC6)C5)CC4)ncc3Cl)ccc2n(C(C)C)c1=O (stereo partly drawn) [Compound 289, 2-({6-[(5-chloro-2-{4-[(1r,3r)-3-{4-[(3R)-2-(2,6-dioxopiperidin-3-yl)-4-fluoro-3-methyl-1-oxo-2,3-dihydro-1H-isoindol-5-yl]piperidin-1-yl}cyclobutoxy]piperidin-1-yl}pyrimidin-4-yl)amino]-2-oxo-1-(propan-2-yl)-1,2-dihydroquinolin-3-yl}oxy)-N-methylacetamide] | ≥ 70% | < 10 nM | 
12 | < 10 nM | 50 to 70% | CNC(=O)COc1cc2cc(Nc3nc(N4CCC(CN5CCC6(CC5)CN(c5cc7c(cc5F)C(=O)N(C5CCC(=O)NC5=O)C7)C6)CC4)ncc3Cl)ccc2n(C(C)C)c1=O (centres unmarked) [Compound 64, 2-{[6-({5-chloro-2-[4-({2-[2-(2,6-dioxopiperidin-3-yl)-6-fluoro-1-oxo-2,3-dihydro-1H-isoindol-5-yl]-2,7-diazaspiro[3.5]nonan-7-yl}methyl)piperidin-1-yl]pyrimidin-4-yl}amino)-2-oxo-1-(propan-2-yl)-1,2-dihydroquinolin-3-yl]oxy}-N-methylacetamide] |  |  | 
13 |  |  | CNC(=O)COc1cc2cc(Nc3nc(N4CCC(CN5CCN(c6ccc7c(c6C)C(=O)N(C6CCC(=O)NC6=O)C7=O)CC5)CC4)ncc3Cl)ccc2n(C(C)C)c1=O (centres unmarked) [Compound 403, 2-{[6-({5-chloro-2-[4-({4-[2-(2,6-dioxopiperidin-3-yl)-4-methyl-1,3-dioxo-2,3-dihydro-1H-isoindol-5-yl]piperazin-1-yl}methyl)piperidin-1-yl]pyrimidin-4-yl}amino)-2-oxo-1-(propan-2-yl)-1,2-dihydroquinolin-3-yl]oxy}-N-methylacetamide] | 50 to 70% | < 10 nM | 
14 | < 10 nM | 50 to 70% | CNC(=O)COc1cc2cc(Nc3nc(N4CCC(F)(CN5CCC6(CC5)CN(c5ccc7c(c5)CN(C5CCC(=O)NC5=O)C7=O)C6)CC4)ncc3Cl)ccc2n(C(C)C)c1=O (centres unmarked) [Compound 51, 2-{[6-({5-chloro-2-[4-({2-[2-(2,6-dioxopiperidin-3-yl)-1-oxo-2,3-dihydro-1H-isoindol-5-yl]-2,7-diazaspiro[3.5]nonan-7-yl}methyl)-4-fluoropiperidin-1-yl]pyrimidin-4-yl}amino)-2-oxo-1-(propan-2-yl)-1,2-dihydroquinolin-3-yl]oxy}-N-methylacetamide] |  |  | 

Row | Compound | DC50 [1] | Dmax [1] | Dmax (T47D) | DC50 | Mean Dmax (%)** category
15 | CNC(=O)COc1cc2cc(Nc3nc(N4CCC(O[C@H]5C[C@H](N6CCC(c7ccc8c(c7)C(=O)N(C7CCC(=O)NC7=O)C8=O)C(F)(F)C6)C5)CC4)ncc3Cl)ccc2n(C(C)C)c1=O (some centres unmarked) [Compound 137, 2-({6-[(5-chloro-2-{4-[(1r,3r)-3-{4-[2-(2,6-dioxopiperidin-3-yl)-1,3-dioxo-2,3-dihydro-1H-isoindol-5-yl]-3,3-difluoropiperidin-1-yl}cyclobutoxy]piperidin-1-yl}pyrimidin-4-yl)amino]-2-oxo-1-(propan-2-yl)-1,2-dihydroquinolin-3-yl}oxy)-N-methylacetamide] | ≥ 100 nM | ≥ 70% |  |  | 
16 | CCc1c(N2CCN([C@H]3C[C@H](OC4CCN(c5ncc(Cl)c(Nc6ccc7c(c6)cc(OCC(=O)NC)c(=O)n7C(C)C)n5)CC4)C3)CC2)ccc2c1C(=O)N(C1CCC(=O)NC1=O)C2=O (some centres unmarked) [Compound 200, 2-({6-[(5-chloro-2-{4-[(1r,3r)-3-{4-[2-(2,6-dioxopiperidin-3-yl)-4-ethyl-1,3-dioxo-2,3-dihydro-1H-isoindol-5-yl]piperazin-1-yl}cyclobutoxy]piperidin-1-yl}pyrimidin-4-yl)amino]-2-oxo-1-(propan-2-yl)-1,2-dihydroquinolin-3-yl}oxy)-N-methylacetamide] | 10 to 50 nM | ≥ 70% |  |  | 
